Source: US20240124478A1, “SPIROCYCLIC-SUBSTITUTED 6,7-DIHYDRO-PYRANO[2,3-d]PYRIMIDINE INHIBITORS OF KRAS G12C MUTANT” (Merck Sharp & Dohme LLC, priority 2020, published 2024)
Where two headings read alike, the source gives them in different places.

Tests used:
[1] = target: recombinant biotinylated KRAS protein containing G12C/C51S/C80L/C118S mutations (Biotinylated KRAS G12C protein) (Homo sapiens (Human), UniProt P01116, C118S/C51S/C80L/G12C); experiment: SOS-catalyzed nucleotide exchange assay (TR-FRET); type: biochemical; conditions: apparent potency; preincubation time of 60 minutes prior to addition of SOS
Protocol: The SOS-catalyzed nucleotide exchange assay utilizes a preformed complex of recombinant biotinylated KRAS protein containing G12C/C51S/C80L/C118S mutations (183 amino acids; biotin on K10; leader sequence which is an AviTag; referred to as SEQ ID NO: 1 or “Biotinylated KRAS G12C protein” hereafter), Bodipy-GDP, and Terbium-streptavidin. Compounds are added to this complex and then after 60 minutes incubation time, the mixture is treated with recombinant SOS protein and unlabeled GTP. Small molecule inhibitors stabilize the Bodipy-GDP complex whereas the untreated protein rapidly exchanges Bodipy-GDP for unlabeled GTP resulting in reduced TR-FRET signal.
Biotinylated KRAS G12C protein (SEQ ID NO: 1) is diluted to 2 μM in an EDTA buffer (20 mM HEPES, 150 mM sodium chloride, 10 mM EDTA, and 0.01% Tween) and incubated at room temperature for one hour. This mixture is then further diluted to 90 nM in an assay buffer (20 mM HEPES, 150 mM sodium chloride, 10 mM magnesium chloride, and 0.005% Tween) containing 15 nM of Terbium-Streptavidin (Invitrogen, catalog #PV3577) and 900 nM of Bodipy-GDP and incubated at room temperature for six hours. This solution is referred to as Biotinylated KRAS G12C mixture.
Each test compound (10 mM stock in DMSO) is diluted in DMSO to make a 10-point, 3-fold dilution series in a 384-well low dead volume microplate (Labcyte, catalog #LP-0200). Once titrations are made, 10 nL of the diluted compounds is acoustically dispensed into a 384-well plate (Corning, catalog #3820) using an Echo 550 (Labcyte).
Each well of the plate receives 3 μL Biotinylated KRAS G12C mixture that had been incubating for six hours and 3 μL of assay buffer using a BioRAPTR (Beckman Coulter) and is incubated at room temperature for 60 minutes. Each well then receives 3 μL of 240 nM recombinant human SOS protein and 9 mM GTP (Sigma, G8877) in assay buffer and is incubated at room temperature for 60 minutes.
The time-resolved fluorescence resonance energy transfer signal of the plate is measured on an Envision (PerkinElmer) plate reader: Excitation filter=340 nm; emission1=495 nm; emission2=520 nm; dichroic mirror=D400/D505; delay time=100 μs. The signal of each well is determined as the ratio of the emission at 520 nm to that at 495 nm. Percent effect of each well is determined after normalization to control wells containing DMSO (no effect) or a saturating concentration of inhibitor (max effect). The apparent effect as a function of compound concentration is fit to a four parameter logistic equation.

NCI-H358 cells = experiment: Cellular phospho-ERK assay; type: cell-based; conditions: 2 hour incubation, ratio of p-Erk vs total Erk, read-out: IC50 (nM) pERK (Cell)
Protocol: NCI-H358 cells (ATCC® CRL-5807™) were cultured in T150 flask in growth medium (RPMI medium 1640-(ThermoFisher Scientific 61870) containing 10% fetal bovine serum (ThermoFisher Scientific 10091148)). The cells were harvested in growth medium after TrypLE (ThermoFisher scientific 12604021) digestion and were seeded in 384-well collagen coated cell culture plate (Corning 356702) at a density of 15,000 cells/well, and incubated at 37° C., 5% CO2 overnight. The compound dose-response titrations were prepared and appropriate amounts of compounds were dispensed in a 384-well intermediate plate using an Echo 550 liquid handler. RPMI medium 1640-GlutaMAX™-I were added to the intermediate plate and transferred to 384-well cell culture plate, which was incubated at 37° C., 5% CO2 for 2 hours. After removal of medium from the plate, cells were lysed in lysis buffer from SureFire® Ultra™ Multiplex p-Erk and total Erk assay kit (PerkinElmer MPSU-PTERK) containing Halt™ Protease and Phosphotase inhibitor cocktail (ThermoFisher Scientific 78446) at room temperature with constant shaking at 300 rpm for 30 minutes. The cell lysates were then transferred to OptiPlate-384 plate (PerkinElmer 6005620) and the phosphorylation of Erk and total Erk levels were detected by Alpha SureFire Ultra Multiplex p-Erk kit PerkinElmer MPSU-PTERK) following the manufacturer's protocol. Assay plates were read on an EnVision Multimode Plate Reader (PerkinElmer), and the ratio of p-Erk vs total Erk in each well was used as the final readout. Dose response curves were analyzed using a 4-parameter logistic model to calculate IC50 values using spotfire software.

Chain of recombinant biotinylated KRAS protein containing G12C/C51S/C80L/C118S mutations (Biotinylated KRAS G12C protein) (P01116 other isoform, or with tags, fused parts or gaps, stated change not applied): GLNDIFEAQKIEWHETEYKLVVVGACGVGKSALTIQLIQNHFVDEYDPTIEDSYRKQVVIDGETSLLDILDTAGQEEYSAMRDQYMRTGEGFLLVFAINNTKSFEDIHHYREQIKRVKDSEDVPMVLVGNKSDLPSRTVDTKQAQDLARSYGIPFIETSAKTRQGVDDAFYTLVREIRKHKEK

With `C=CC(=O)N1CCN(c2nc(OC[C@@H]3CCCN3C)nc3c2CCC2(CCCc4ccnc(O)c42)O3)C[C@@H]1CC#N` (mixture of isomers) [Example 8, 2-((2S)-1-acryloyl-4-(1-hydroxy-2′-(((S)-1-methylpyrrolidin-2-yl)methoxy)-5′,6,6′,7-tetrahydro-5H-spiro[isoquinoline-8,7′-pyrano[2,3-d]pyrimidin]-4′-yl)piperazin-2-yl)acetonitrile] the IC50 [1] was 990 nM and the IC50 (NCI-H358 cells; Homo sapiens, NCI-H358, 2 h) was 23400 nM.

With `C=CC(=O)N1CCN(c2nc(OC[C@@H]3CCCN3C)nc3c2CCC2(CCCc4cccc(C)c42)O3)C[C@@H]1CC#N` (single isomer, unassigned) [Example 1a] the IC50 [1] was 6.37 nM and the IC50 (NCI-H358 cells) was 495 nM.

`C=CC(=O)N1CCN(c2nc(OC[C@@H]3CCCN3C)nc3c2CCC2(CCCc4cccc(C)c42)O3)C[C@@H]1CC#N` (single isomer, unassigned) [Example 1b] gave an IC50 [1] of 54.9 nM and an IC50 (NCI-H358 cells) of 2860 nM.

For `C=CC(=O)N1CCN(c2nc(OC[C@@H]3CCCN3C)nc3c2CCC2(CCCc4ccccc42)O3)C[C@@H]1CC#N` (single isomer, unassigned) [Example 2a], the IC50 [1] was 13.7 nM and the IC50 (NCI-H358 cells; Homo sapiens, NCI-H358, 2 h) was 154 nM.

In the case of `C=CC(=O)N1CCN(c2nc(OC[C@@H]3CCCN3C)nc3c2CCC2(CCCc4ccccc42)O3)C[C@@H]1CC#N` (single isomer, unassigned) [Example 2b], the IC50 [1] is reported as 14.7 nM and the IC50 (NCI-H358 cells) is reported as 268 nM.

`C=CC(=O)N1CCN(c2nc(OC[C@@H]3CCCN3C)nc3c2CCC2(CCCc4c(F)cccc42)O3)C[C@@H]1CC#N` (single isomer, unassigned) [Example 3a] gave an IC50 [1] of 14.5 nM and an IC50 (NCI-H358 cells) of 506 nM.

With `C=CC(=O)N1CCN(c2nc(OC[C@@H]3CCCN3C)nc3c2CCC2(CCCc4c(F)cccc42)O3)C[C@@H]1CC#N` (single isomer, unassigned) [Example 3b] the IC50 [1] was 51 nM and the IC50 (NCI-H358 cells) was 1120 nM.

Compound `C=CC(=O)N1CCN(c2nc(OC[C@@H]3CCCN3C)nc3c2CCC2(CCc4ccccc42)O3)C[C@@H]1CC#N` (single isomer, unassigned) [Example 4a] has an IC50 [1] of 14.9 nM and an IC50 (NCI-H358 cells) of 311 nM.

Work on `C=CC(=O)N1CCN(c2nc(OC[C@@H]3CCCN3C)nc3c2CCC2(CCc4ccccc42)O3)C[C@@H]1CC#N` (single isomer, unassigned) [Example 4b] yielded an IC50 [1] of 164 nM and an IC50 (NCI-H358 cells) of 2500 nM.

With `C=CC(=O)N1CCN(c2nc(OCC[C@@H]3CCCN3C)nc3c2CCC2(CCCc4ccccc42)O3)C[C@@H]1CC#N` (single isomer, unassigned) [Example 5a] the IC50 [1] was 18.7 nM and the IC50 (NCI-H358 cells) was 1250 nM.

`C=CC(=O)N1CCN(c2nc(OCC[C@@H]3CCCN3C)nc3c2CCC2(CCCc4ccccc42)O3)C[C@@H]1CC#N` (single isomer, unassigned) [Example 5b] was tested, and the IC50 [1] was 274 nM and the IC50 (NCI-H358 cells) was 5980 nM.

Compound `C=CC(=O)N1CCN(c2nc(OC[C@@H]3CCCN3C)nc3c2CCC2(CCC(C)(C)c4ccccc42)O3)C[C@@H]1CC#N` (single isomer, unassigned) [Example 6a] has an IC50 [1] of 181 nM and an IC50 (NCI-H358 cells; Homo sapiens, NCI-H358, 2 h) of 3100 nM.

`C=CC(=O)N1CCN(c2nc(OC[C@@H]3CCCN3C)nc3c2CCC2(CCC(C)(C)c4ccccc42)O3)C[C@@H]1CC#N` (single isomer, unassigned) [Example 6b] was tested, and the IC50 [1] was 413 nM and the IC50 (NCI-H358 cells) was 4370 nM.

With `C=CC(=O)N1CCN(c2nc(OC[C@@H]3CCCN3C)nc3c2CCC2(CCC(F)(F)c4ccccc42)O3)C[C@@H]1CC#N` (single isomer, unassigned) [Example 7a] the IC50 [1] was 77.3 nM and the IC50 (NCI-H358 cells; Homo sapiens, NCI-H358, 2 h) was 1620 nM.

`C=CC(=O)N1CCN(c2nc(OC[C@@H]3CCCN3C)nc3c2CCC2(CCC(F)(F)c4ccccc42)O3)C[C@@H]1CC#N` (single isomer, unassigned) [Example 7b] was tested, and the IC50 [1] was 119 nM and the IC50 (NCI-H358 cells) was 2150 nM.

In the case of `C=CC(=O)N1CCN(c2nc(OC[C@@H]3CCCN3C)nc3c2CCC2(CCC(C)c4ccccc42)O3)C[C@@H]1CC#N` (single isomer, unassigned) [Example 9a], the IC50 [1] is reported as 40.5 nM and the IC50 (NCI-H358 cells) is reported as 1940 nM.

`C=CC(=O)N1CCN(c2nc(OC[C@@H]3CCCN3C)nc3c2CCC2(CCC(C)c4ccccc42)O3)C[C@@H]1CC#N` (single isomer, unassigned) [Example 9b] gave an IC50 [1] of 34.2 nM and an IC50 (NCI-H358 cells) of 1170 nM.

`C=CC(=O)N1CCN(c2nc(OC[C@@H]3CCCN3C)nc3c2CCC2(CCC(C)c4ccccc42)O3)C[C@@H]1CC#N` (single isomer, unassigned) [Example 9c] was tested, and the IC50 [1] was 110 nM and the IC50 (NCI-H358 cells) was 1840 nM.

For `C=CC(=O)N1CCN(c2nc(OC[C@@H]3CCCN3C)nc3c2CCC2(CCC(C)c4ccccc42)O3)C[C@@H]1CC#N` (single isomer, unassigned) [Example 9d], the IC50 [1] was 149 nM and the IC50 (NCI-H358 cells) was 2410 nM.

`C=CC(=O)N1CCN(c2nc(OC[C@@H]3CCCN3C)nc3c2CCC2(O3)c3ccccc3CCC2C)C[C@@H]1CC#N` (single isomer, unassigned) [Example 10a] gave an IC50 [1] of 145 nM and an IC50 (NCI-H358 cells; Homo sapiens, NCI-H358, 2 h) of 6640 nM.

`C=CC(=O)N1CCN(c2nc(OC[C@@H]3CCCN3C)nc3c2CCC2(O3)c3ccccc3CCC2C)C[C@@H]1CC#N` (single isomer, unassigned) [Example 10b] showed an IC50 [1] of 50 nM and an IC50 (NCI-H358 cells) of 4530 nM.

`C=CC(=O)N1CCN(c2nc(OC[C@@H]3CCCN3C)nc3c2CCC2(CCCc4c(C)cc(C)cc42)O3)C[C@@H]1CC#N` (single isomer, unassigned) [Example 11a] gave an IC50 [1] of 46.7 nM and an IC50 (NCI-H358 cells) of 1800 nM.

`C=CC(=O)N1CCN(c2nc(OC[C@@H]3CCCN3C)nc3c2CCC2(CCCc4c(C)cc(C)cc42)O3)C[C@@H]1CC#N` (single isomer, unassigned) [Example 11b] was tested, and the IC50 [1] was 661 nM and the IC50 (NCI-H358 cells) was 28600 nM.

Compound `C=CC(=O)N1CCN(c2nc(OCC3(CN(C)C)CC3)nc3c2CCC2(CCCc4ccccc42)O3)C[C@@H]1CC#N` (single isomer, unassigned) [Example 12a] has an IC50 [1] of 99.7 nM and an IC50 (NCI-H358 cells) of 1330 nM.

Work on `C=CC(=O)N1CCN(c2nc(OCC3(CN(C)C)CC3)nc3c2CCC2(CCCc4ccccc42)O3)C[C@@H]1CC#N` (single isomer, unassigned) [Example 12b] yielded an IC50 [1] of 728 nM and an IC50 (NCI-H358 cells) of 5620 nM.

In the case of `C=CC(=O)N1CCN(c2nc(OC[C@@H]3CCCN3CC)nc3c2CCC2(CCCc4ccccc42)O3)C[C@@H]1CC#N` (single isomer, unassigned) [Example 15a], the IC50 [1] is reported as 43.4 nM and the IC50 (NCI-H358 cells) is reported as 638 nM.

`C=CC(=O)N1CCN(c2nc(OC[C@@H]3CCCN3CC)nc3c2CCC2(CCCc4ccccc42)O3)C[C@@H]1CC#N` (single isomer, unassigned) [Example 15b] was tested, and the IC50 [1] was 84 nM and the IC50 (NCI-H358 cells) was 1810 nM.

In the case of `C=CC(=O)N1CCN(c2nc(OC[C@@H]3CC(F)(F)CN3C)nc3c2CCC2(CCCc4ccccc42)O3)C[C@@H]1CC#N` (single isomer, unassigned) [Example 16a], the IC50 [1] is reported as 18.9 nM and the IC50 (NCI-H358 cells) is reported as 246 nM.

`C=CC(=O)N1CCN(c2nc(OC[C@@H]3CC(F)(F)CN3C)nc3c2CCC2(CCCc4ccccc42)O3)C[C@@H]1CC#N` (single isomer, unassigned) [Example 16b] showed an IC50 [1] of 109 nM and an IC50 (NCI-H358 cells) of 1650 nM.

Work on `C=C(F)C(=O)N1CCN(c2nc(OC[C@@H]3CCCN3C)nc3c2CCC2(CCCc4ccccc42)O3)C[C@@H]1CC#N` (single isomer, unassigned) [Example 17a] yielded an IC50 [1] of 823 nM and an IC50 (NCI-H358 cells; Homo sapiens, NCI-H358, 2 h) of 6680 nM.
